Assay results: article PMC6110851, “An Optimized MicroPET Imaging Method for the Distribution and Synergies of Natural Products” (Frontiers in Pharmacology, 2018)

Assay: MicroPET biodistribution of [^18F]-GA in mice
Assay type: in vivo
Conditions: for time to peak in organ: after injection
Method: The mice were grouped by weight and housed in cages of the climate control room (25°C), with a photoperiod 12:12-h. During feeding, mice were free to access food and water. Mice were fasted for 24 h before the experiment. The mice were anesthetized with 4% isoflurane while preparing for scanning ([Constantinescu et al., 2013b]; [Cui et al., 2017]). Eighteen healthy male Kunming mice, weighing 20 ± 2 g, were divided into three groups, which were control group, once-administered (OA) group and long-term administration (LA) group. In the OA group, 1 h before the administration of [^18F]-GA, the mice were orally treated with PG polysaccharides. In the LA group, the mice were orally given the PG polysaccharides for 7 days, but not before the administration of [^18F]-GA.
Rice received a tail vein injection (8.67 ± 2.14 MBq/μg) of [^18F]-GA and placed in the scanner bed and mouse-imaging room immediately ([Constantinescu et al., 2013b]; [O’Doherty et al., 2017]). Firstly, 2 h PET scanning was performed using an Inveon-dedicated PET scanner. The average delay between injection and starting of PET scanning was 3.5 min. Rice were maintained stable under 4% isoflurane anesthesia throughout scanning. The PET list-mode data were dynamically classified into 23 3D sinograms of span and three ring difference. After Fourier recombination, the data were reconstructed using a 2D ordered-subset expectation maximization algorithm. Random events were excluded before reconstruction. The response of detector is normalized using a component-based approach. All dynamic images were corrected for radioactive decay automatically. The PET images were reconstructed by a cone beam algorithm into 480 × 480 × 632 image arrays. After the reconstruction, images were spatially transformed to match the PET images ([Constantinescu et al., 2013a],[b]).
The reconstruction of the image was performed using the PMOD software (PMOD Technologies). The 3D volumes of interest (VOIs) were drawn manually of the following organs: brain, heart, liver, lungs, kidneys, cortical bone, and gallbladder. The organs were carefully identified and VOIs were drawn as irregular contours on high-resolution PET images obtained from each mouse ([Constantinescu et al., 2013b]; [Garg et al., 2017]). The size of each VOI was less than the actual size of each organ to minimize the effects of PET on adjacent organ spills. The VOIs drawing was verified by a second operator. The VOIs of cortical bone were generated by first using PET image to depict the entire femur bone ([Constantinescu et al., 2013b]). The VOI was transferred to a dynamic PET image and the mean time-activity curve (TAC) of the decay correction was extracted for each target organ ([Constantinescu et al., 2013b]).

[1] = mice, tail vein injection, Time(s) 60
[2] = mice, tail vein injection, Time(s) 180
[3] = mice, tail vein injection, Time(s) 300
[4] = mice, tail vein injection, Time(s) 420
[5] = mice, tail vein injection, Time(s) 660
[6] = mice, tail vein injection, Time(s) 780
[7] = mice, tail vein injection, Time(s) 900
[8] = mice, tail vein injection, Time(s) 1020
[9] = mice, tail vein injection, Time(s) 1140
[10] = mice, tail vein injection, Time(s) 1350
[11] = mice, tail vein injection, Time(s) 1650
[12] = mice, tail vein injection, Time(s) 1950
[13] = mice, tail vein injection, Time(s) 2250
[14] = mice, tail vein injection, Time(s) 2700
[15] = mice, tail vein injection, Time(s) 3300
[16] = mice, tail vein injection, Time(s) 3900
[17] = mice, tail vein injection, Time(s) 4500
[18] = mice, tail vein injection, Time(s) 5100
[19] = mice, tail vein injection, Time(s) 5700
[20] = mice, tail vein injection, Time(s) 6300
[21] = mice, tail vein injection, Time(s) 6900

- organ of highest uptake (all mice): highest uptake was found in the liver
- time to peak in organ (gallbladder, mice, maintained on the peak): 30 min
- time to peak in organ (heart, lung, and kidney, mice): immediately reached a peak
- time to peak in organ (liver, mice): 7 min
- brain concentrations (mice, MicroPET 3-130 min): consistently low
- route of excretion of radioactivity (mice, radiotracer found in the gallbladder): excreted via the biliary
- Organs (%ID/g) Brain [1]: 1.19 %ID/g
- Organs (%ID/g) Gallbladder [1]: 11.19 %ID/g
- Organs (%ID/g) Heart [1]: 12.13 %ID/g
- Organs (%ID/g) Kidney [1]: 9.67 %ID/g
- Organs (%ID/g) Liver [1]: 13.03 %ID/g
- Organs (%ID/g) Brain [2]: 0.79 %ID/g
- Organs (%ID/g) Gallbladder [2]: 14.59 %ID/g
- Organs (%ID/g) Heart [2]: 6.52 %ID/g
- Organs (%ID/g) Kidney [2]: 8.98 %ID/g
- Organs (%ID/g) Liver [2]: 17.00 %ID/g
- Organs (%ID/g) Brain [3]: 0.73 %ID/g
- Organs (%ID/g) Gallbladder [3]: 19.88 %ID/g
- Organs (%ID/g) Heart [3]: 4.75 %ID/g
- Organs (%ID/g) Kidney [3]: 7.13 %ID/g
- Organs (%ID/g) Liver [3]: 16.13 %ID/g
- Organs (%ID/g) Heart [4]: 4.07 %ID/g
- Organs (%ID/g) Kidney [4]: 6.26 %ID/g
- Organs (%ID/g) Liver [4]: 14.94 %ID/g
- Organs (%ID/g) Brain [5]: 0.58 %ID/g
- Organs (%ID/g) Gallbladder [5]: 26.93 %ID/g
- Organs (%ID/g) Heart [5]: 3.50 %ID/g
- Organs (%ID/g) Kidney [5]: 5.00 %ID/g
- Organs (%ID/g) Liver [5]: 12.33 %ID/g
- Organs (%ID/g) Lung [5]: 2.45 %ID/g
- Organs (%ID/g) Brain [6]: 0.61 %ID/g
- Organs (%ID/g) Gallbladder [6]: 29.01 %ID/g
- Organs (%ID/g) Heart [6]: 3.33 %ID/g
- Organs (%ID/g) Kidney [6]: 4.73 %ID/g
- Organs (%ID/g) Liver [6]: 11.32 %ID/g
- Organs (%ID/g) Brain [7]: 0.54 %ID/g
- Organs (%ID/g) Gallbladder [7]: 30.51 %ID/g
- Organs (%ID/g) Kidney [7]: 4.52 %ID/g
- Organs (%ID/g) Liver [7]: 10.43 %ID/g
- Organs (%ID/g) Brain [8]: 0.56 %ID/g
- Organs (%ID/g) Gallbladder [8]: 33.20 %ID/g
- Organs (%ID/g) Heart [8]: 3.03 %ID/g
- Organs (%ID/g) Kidney [8]: 4.23 %ID/g
- Organs (%ID/g) Liver [8]: 9.66 %ID/g
- Organs (%ID/g) Brain [9]: 0.52 %ID/g
- Organs (%ID/g) Gallbladder [9]: 34.49 %ID/g
- Organs (%ID/g) Heart [9]: 2.92 %ID/g
- Organs (%ID/g) Kidney [9]: 4.04 %ID/g
- Organs (%ID/g) Liver [9]: 9.05 %ID/g
- Organs (%ID/g) Brain [10]: 0.49 %ID/g
- Organs (%ID/g) Gallbladder [10]: 36.96 %ID/g
- Organs (%ID/g) Kidney [10]: 3.71 %ID/g
- Organs (%ID/g) Liver [10]: 8.34 %ID/g
- Organs (%ID/g) Brain [11]: 0.41 %ID/g
- Organs (%ID/g) Gallbladder [11]: 40.92 %ID/g
- Organs (%ID/g) Heart [11]: 2.67 %ID/g
- Organs (%ID/g) Kidney [11]: 3.30 %ID/g
- Organs (%ID/g) Liver [11]: 7.55 %ID/g
- Organs (%ID/g) Brain [12]: 0.42 %ID/g
- Organs (%ID/g) Gallbladder [12]: 42.68 %ID/g
- Organs (%ID/g) Heart [12]: 2.64 %ID/g
- Organs (%ID/g) Liver [12]: 6.96 %ID/g
- Organs (%ID/g) Brain [13]: 0.39 %ID/g
- Organs (%ID/g) Gallbladder [13]: 44.48 %ID/g
- Organs (%ID/g) Heart [13]: 2.82 %ID/g
- Organs (%ID/g) Kidney [13]: 2.79 %ID/g
- Organs (%ID/g) Liver [13]: 6.50 %ID/g
- Organs (%ID/g) Brain [14]: 0.42 %ID/g
- Organs (%ID/g) Gallbladder [14]: 43.79 %ID/g
- Organs (%ID/g) Heart [14]: 2.37 %ID/g
- Organs (%ID/g) Kidney [14]: 2.52 %ID/g
- Organs (%ID/g) Liver [14]: 5.90 %ID/g
- Organs (%ID/g) Brain [15]: 0.37 %ID/g
- Organs (%ID/g) Gallbladder [15]: 45.86 %ID/g
- Organs (%ID/g) Heart [15]: 2.43 %ID/g
- Organs (%ID/g) Kidney [15]: 2.22 %ID/g
- Organs (%ID/g) Liver [15]: 5.27 %ID/g
- Organs (%ID/g) Brain [16]: 0.37 %ID/g
- Organs (%ID/g) Gallbladder [16]: 46.86 %ID/g
- Organs (%ID/g) Heart [16]: 2.63 %ID/g
- Organs (%ID/g) Liver [16]: 4.83 %ID/g
- Organs (%ID/g) Brain [17]: 0.45 %ID/g
- Organs (%ID/g) Gallbladder [17]: 41.98 %ID/g
- Organs (%ID/g) Heart [17]: 2.11 %ID/g
- Organs (%ID/g) Kidney [17]: 1.92 %ID/g
- Organs (%ID/g) Liver [17]: 4.51 %ID/g
- Organs (%ID/g) Brain [18]: 0.38 %ID/g
- Organs (%ID/g) Gallbladder [18]: 39.31 %ID/g
- Organs (%ID/g) Heart [18]: 2.28 %ID/g
- Organs (%ID/g) Kidney [18]: 1.82 %ID/g
- Organs (%ID/g) Liver [18]: 4.27 %ID/g
- Organs (%ID/g) Brain [19]: 0.41 %ID/g
- Organs (%ID/g) Gallbladder [19]: 36.96 %ID/g
- Organs (%ID/g) Heart [19]: 1.96 %ID/g
- Organs (%ID/g) Liver [19]: 3.90 %ID/g
- Organs (%ID/g) Brain [20]: 0.46 %ID/g
- Organs (%ID/g) Gallbladder [20]: 39.06 %ID/g
- Organs (%ID/g) Heart [20]: 2.18 %ID/g
- Organs (%ID/g) Kidney [20]: 1.65 %ID/g
- Organs (%ID/g) Liver [20]: 3.82 %ID/g
- Organs (%ID/g) Brain [21]: 0.48 %ID/g
- Organs (%ID/g) Gallbladder [21]: 41.97 %ID/g
- Organs (%ID/g) Heart [21]: 2.64 %ID/g
- Organs (%ID/g) Kidney [21]: 1.59 %ID/g
- Organs (%ID/g) Liver [21]: 3.64 %ID/g
SMILES: CC1(C)[C@@H](O)CC[C@]2(C)[C@H]3C(=O)C=C4[C@@H]5C[C@@](C)(C(=O)NCCCC[18F])CC[C@]5(C)CC[C@@]4(C)[C@]3(C)CC[C@@H]12 [[^18F]-GA, [^18F]-Glycyrrhetinic acid]
